The values that follow come from ChEMBL document CHEMBL1132649, “Molecular modeling and synthesis of inhibitors of herpes simplex virus type 1 uracil-DNA glycosylase” (J Med Chem, 1999).

The test concerns Uracil-DNA glycosylase (Herpes simplex virus type 1). Description: Inhibitory potency against HSV-1 UDG( Herpes Simplex virus type-I Uracil DNA glycosylase); 10-15% inhibition was observed at a concentration of 40 uM. The following applies: Human alphaherpesvirus 1.
In general, inhibition refers to the drop in the measured response relative to a control, in per cent. The molecule `CCCCCCc1ccc(Nc2cc(=O)[nH]c(=O)n2C)cc1` registered an inhibition of 15%. With `CCCCCCc1ccc(Nc2cc(=O)[nH]c(=O)n2CCC)cc1` the figure was 15%; with `CCCCCCc1ccc(Nc2cc(=O)[nH]c(=O)n2CC)cc1`, 15%.
